Measurements as given in US11466024B2, “Bicylic compound acting as an inhibitor” (CHIA TAI TIANQING PHARMACEUTICAL GROUP CO., LTD., priority 2017, dated 2022).

Key:
RORγ = biological target: T1, RORγ (Homo sapiens, UniProt P51449); experiment: In vitro test for inhibitory activity on RORγ: luciferase reporter cells expressing chimeric Gal4-RORγ receptor; format: cell-based; settings: Gal4 hybrid receptor luciferase reporter, HEK293, 24 hours incubation
T1 sequence (P51449 97-518): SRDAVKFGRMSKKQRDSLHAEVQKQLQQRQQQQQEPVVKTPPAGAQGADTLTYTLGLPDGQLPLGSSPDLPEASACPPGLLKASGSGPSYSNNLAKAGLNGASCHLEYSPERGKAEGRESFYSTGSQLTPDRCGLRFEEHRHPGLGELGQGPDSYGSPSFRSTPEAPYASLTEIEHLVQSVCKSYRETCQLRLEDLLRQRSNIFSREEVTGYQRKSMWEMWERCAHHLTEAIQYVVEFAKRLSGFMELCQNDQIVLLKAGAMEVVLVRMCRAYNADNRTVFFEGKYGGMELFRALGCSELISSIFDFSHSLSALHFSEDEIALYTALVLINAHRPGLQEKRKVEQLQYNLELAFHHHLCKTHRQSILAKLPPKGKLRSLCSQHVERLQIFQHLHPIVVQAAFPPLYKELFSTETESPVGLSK
Procedure: Reporter cells: Reporter cells expressing a chimeric RORγ receptor were used in this experiment. The chimeric RORγ receptor was a RORγ receptor formed by replacing the N-terminal DNA-binding domain of the natural RORγ protein with the DNA-binding domain of the yeast Gal4 protein. The luciferase reporter gene was located at the downstream of the Gal4 activating sequence (UAS).
Step 1: Reporter cells were prepared into a cell suspension using INDIGO's Cell Recovery Medium (CRM, containing 5% fetal bovine serum treated by activated carbon). The cell suspension was dispensed into a white 96-well culture plate in a volume of 100 μl/well.
Step 2: Eight concentration gradients were set for each test compound, and the test was conducted twice at each concentration. Prior to the experiment, the main stock solution of the test compound was serially diluted with DMSO, so as to formulate solutions with “1000×-concentration” relative to each of the final test concentrations. Subsequently, the compound was further diluted with the cell recovery medium (CRM, containing 5% fetal bovine serum treated by activated carbon), so as to formulate test working solutions with “2×-concentration”. As per a volume of 100 μl/well, the test working solutions were respectively added to the test wells in which the reporter cells were added in advance, so as to obtain the desired final test concentrations. The residual concentrations of DMSO in all test wells were 0.1%. The test plate was incubated in a cell incubator for 24 hours. Conditions of the incubator were set as follows: temperature: 37° C., 5% CO2, humidity: ˜85%.
Step 3: After 24 hours of incubation, the liquid in the culture plate was discarded, 100 μl of luciferase detection reagent was added to each test well, and then, the fluorescence intensity (Relative Luminescence Units, RLUs) in each well was read.
In this test, the reference compound ursolic acid was used as an internal standard of a positive compound to verify the inhibitory effect of the test compound on RORγ in reporter cells of a specific batch. The tests for the reference compound and the test compound were performed simultaneously, and the reference compound and the test compound were thus exposed to the same test reagent and environment. The reference compound group containing 0.1% DMSO as solvent was used as an internal standard of a positive compound, so as to determine the effect of the solvent DMSO on the test results and calculate the percentage reduction in RORγ activity.
The test data was managed and archived by Microsoft Excel, and mean±standard deviation (SD) of RLU, fold of reduction, inhibition rate, coefficient of variation (% CV) and Z factor were calculated. Coefficient of variation (% CV): 100×(SD/Ave. RLU); Fold of reduction for inverse agonist: [Ave. […]

[1] = tested on: MOG35-55-induced experimental autoimmune encephalomyelitis (EAE); experiment: In vivo pharmacodynamic research on MOG35-55-induced experimental autoimmune encephalomyelitis (EAE) in mice; settings: G4, 75 mg/kg p.o. b.i.d
Procedure: The day of immunization was recorded as day 0, and the subsequent days were marked sequentially. Mice were anesthetized with isoflurane, and 100 μl of the emulsion was administered via subcutaneous injection at three sites (the middle part between shoulder and back, and two sides of the tail that were close to the groin), namely, 33 μl of the emulsion for each site. 0 hour and 48 hours after the injection of the emulsion, 200 ng (i.e. 200 μl) of the PTX solution was intraperitoneal injected. Mice in the normal group were not required to be immunized.
After the immunization on day 0, the immunized mice were randomly divided into 3 groups with 10 mice in each group according to the body weights except for the mice in the normal group, the details were shown in Table 1. FTY720 served as a positive drug, and a dose of […] was an effective dose commonly used in the EAE model.
The first group was normal mice without any treatment; vehicle was administered to the second group; FTY720 was administered to the third group at a dose of 0.5 mg/kg once a day; and the compound of Example 1 was administered to the fourth group at a dose of 75 mg/kg twice a day. The administration lasted for 25 days in total. The volume of intragastric administration was 10 ml/kg.
The day when animals were immunized was day 0. Animal body weights were recorded three times a week from day 0 to day 10, and the body weights and clinical scores of the animals were closely observed and recorded daily from day 11.
The experimental data was expressed as mean±standard error of mean (Mean±SEM).
The area under the curve of clinical scores over time (i.e. “AUC of clinical scores” or “area under the curve of clinical scores”) was calculated by analyzing the curve of clinical scores for each animal in each group, and the inhibition rates of the remaining groups (G1, G3, and G4) relative to G2 (solvent control group) were calculated by the mean AUC of clinical scores among groups.

With `CCS(=O)(=O)c1ccc(CNC(=O)c2cc3c(s2)C(C(C)C)N(C[C@H]2CC[C@H](C(F)(F)F)CC2)C3)nc1` (single isomer, unassigned) [Example 1] the EC50 (RORγ; Specific value of the concentration required for 50% inhibition (EC50) of RORγ) was 15.8 nM, the EC50 (RORγ; Value of the concentration required for 50% Inhibition (EC50) of RORγ) was less than 100 nM and the “clinical scores of EAE mice” value ([1]; 25 days, FIG. 1) was “significantly reduced”. For the same compound, the “inhibition rate of AUC of clinical scores relative to solvent control group” value ([1]; 25 days, p<0.0001, FIG. 2) was 93.2%, the “morbidity of EAE” value ([1]; at day 19, stable till the end of the experiment, FIG. 3) was 20% and the “body weights compared among groups” value ([1]; from the beginning to end, FIG. 4) was “the highest”. For the same compound, the body weight changes ([1]; significantly different from solvent control group, FIG. 4) was “kept increasing”.
